Test [1] deals with T1, Human AhR (Homo sapiens, UniProt P35869).
T1 construct: host or cells: U87 glioblastoma cells, stably transfected with a DRE firefly luciferase reporter and a constitutive renilla reporter
T1 sequence (P35869 11-848): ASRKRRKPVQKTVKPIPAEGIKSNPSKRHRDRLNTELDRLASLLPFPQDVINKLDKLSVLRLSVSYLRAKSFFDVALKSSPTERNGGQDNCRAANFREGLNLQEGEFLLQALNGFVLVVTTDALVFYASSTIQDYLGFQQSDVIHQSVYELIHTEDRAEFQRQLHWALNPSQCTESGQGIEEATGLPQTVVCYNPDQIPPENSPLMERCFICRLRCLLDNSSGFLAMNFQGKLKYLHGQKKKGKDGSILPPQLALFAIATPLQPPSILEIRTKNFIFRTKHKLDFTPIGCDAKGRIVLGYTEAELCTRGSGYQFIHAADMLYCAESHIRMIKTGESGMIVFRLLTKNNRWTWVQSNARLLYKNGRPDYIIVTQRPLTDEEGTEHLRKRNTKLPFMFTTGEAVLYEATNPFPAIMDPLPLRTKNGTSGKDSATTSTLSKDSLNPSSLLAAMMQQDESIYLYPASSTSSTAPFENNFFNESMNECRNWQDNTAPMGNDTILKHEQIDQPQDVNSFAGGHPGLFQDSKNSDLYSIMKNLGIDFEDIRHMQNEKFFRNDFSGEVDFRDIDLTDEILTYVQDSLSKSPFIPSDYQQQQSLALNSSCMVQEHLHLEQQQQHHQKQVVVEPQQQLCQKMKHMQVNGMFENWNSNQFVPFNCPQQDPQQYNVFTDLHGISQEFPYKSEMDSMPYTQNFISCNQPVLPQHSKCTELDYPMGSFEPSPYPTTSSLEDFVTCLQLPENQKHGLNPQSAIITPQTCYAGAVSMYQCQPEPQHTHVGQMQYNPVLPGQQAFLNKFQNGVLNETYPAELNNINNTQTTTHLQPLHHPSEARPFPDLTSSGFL
As to the kind of experiment: Transactivation assay in human cell line (in vitro assay 1): antagonism. The format is cell-based. Conditions: U87 glioblastoma cells, AHR inducible firefly luciferase reporter (DRE), 150 μM kynurenic acid, 20 hours. In a few lines: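 U87 glioblastoma cells with endogenous AHR, stably transfected with a DRE-driven firefly luciferase reporter and a constitutive Renilla reporter. Cells prestimulated with kynurenic acid before compound addition. Dual luciferase read-out, with Renilla signal used to flag toxicity.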

The target of test [2] is T2, Mouse AhR (Mus musculus, UniProt P30561).
T2 sequence (P30561 1-848 P471L/N533S/M589L): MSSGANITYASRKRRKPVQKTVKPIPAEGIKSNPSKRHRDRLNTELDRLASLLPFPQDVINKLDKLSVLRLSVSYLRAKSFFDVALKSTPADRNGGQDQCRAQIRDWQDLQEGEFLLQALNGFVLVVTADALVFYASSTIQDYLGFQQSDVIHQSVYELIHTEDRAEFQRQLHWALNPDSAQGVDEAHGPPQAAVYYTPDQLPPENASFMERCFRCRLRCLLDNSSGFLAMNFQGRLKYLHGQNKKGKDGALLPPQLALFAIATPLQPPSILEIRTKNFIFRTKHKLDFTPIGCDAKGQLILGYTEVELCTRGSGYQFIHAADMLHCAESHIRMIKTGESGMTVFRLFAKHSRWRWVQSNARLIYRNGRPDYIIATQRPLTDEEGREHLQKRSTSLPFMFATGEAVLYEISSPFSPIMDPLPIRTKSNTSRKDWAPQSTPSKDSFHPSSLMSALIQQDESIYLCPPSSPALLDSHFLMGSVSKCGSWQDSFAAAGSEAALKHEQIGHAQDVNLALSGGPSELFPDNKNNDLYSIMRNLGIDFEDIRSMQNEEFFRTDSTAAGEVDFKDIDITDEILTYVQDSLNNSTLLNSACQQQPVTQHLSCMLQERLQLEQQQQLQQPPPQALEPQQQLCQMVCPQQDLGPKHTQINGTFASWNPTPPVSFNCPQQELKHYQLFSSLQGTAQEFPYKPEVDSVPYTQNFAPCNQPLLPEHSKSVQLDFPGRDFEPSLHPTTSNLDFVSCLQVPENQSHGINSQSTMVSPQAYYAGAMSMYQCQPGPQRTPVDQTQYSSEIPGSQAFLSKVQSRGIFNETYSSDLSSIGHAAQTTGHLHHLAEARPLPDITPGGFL
Nature of the test: Transactivation assay in mouse cell line (in vitro assay 2): antagonism. It is filed as cell-based. Conditions: Hepa 1c1c7 cells, AHR inducible firefly luciferase reporter (DRE), 200 μM kynurenic acid, 20 hours. The method, then:
Examples were tested in selected biological assays one or more times. When tested more than once, data are reported as either average values or as median values, wherein • the average value, also referred to as the arithmetic mean value, represents the sum of the values obtained divided by the number of times tested, and • the median value represents the middle number of the group of values when ranked in ascending or descending order. If the number of values in the data set is odd, the median is the middle value. If the number of values in the data set is even, the median is the arithmetic mean of the two middle values.
Transactivation Assay in Mouse Cell Line (In Vitro Assay 2)
Transactivation assay was carried out in Hepa 1c1c7 cells (ATCC #CRL-2026) endogenously expressing AHR. In addition the cells were stably transfected with an AHR inducible firefly luciferase reporter gene construct that carried AHR-binding sites (DRE) in its promoter. Kynurenic acid is an endogenous AHR activating ligand and was used to prestimulate test cells prior to testing the antagonistic properties of compounds.
In Vitro Assay 2: Antagonism in Mouse Cell Line
Firefly luciferase activity was determined by the SteadyGlo Luciferase Assay System (Promega, #E2550).
A general note: Reporter assays use an easily measured gene product as a stand-in for the process of interest.

Regarding `Cc1cc(-c2nc(C(=O)N[C@@H](C)CO)cc(-c3ccc(OC(F)(F)F)cc3)n2)ccc1F` [Example 32, 2-(4-fluoro-3-methylphenyl)-N-[(2S)-1-hydroxypropan-2-yl]-6-[4-(trifluoromethoxy)phenyl]pyrimidine-4-carboxamide], the IC50 (in general, the concentration that inhibits the measured activity by half) in test [1] is 167 nM; in test [2] it was 384 nM.

As for `C[C@@H](CO)NC(=O)c1cc(-c2ccc(OC(F)(F)F)cc2)nc(-c2ccc(F)c(Cl)c2)n1` [Example 33, 2-(3-chloro-4-fluorophenyl)-N-[(2S)-1-hydroxypropan-2-yl]-6-[4-(trifluoromethoxy)phenyl]pyrimidine-4-carboxamide], the IC50 in test [1] is 98.4 nM; in test [2], 397 nM.

As for `C[C@@H](CO)NC(=O)c1cc(-c2ccc(OC(F)(F)F)cc2)nc(-c2cccc(C#N)c2)n1` [Example 36, 2-(3-cyanophenyl)-N-[(2S)-1-hydroxypropan-2-yl]-6-[4-(trifluoromethoxy)phenyl]pyrimidine-4-carboxamide], the IC50 came to 18.4 nM in test [1] and 180 nM in test [2].

As for `Cc1cc(F)cc(-c2nc(C(=O)N[C@@H](C)CO)cc(-c3ccc(OC(F)(F)F)cc3)n2)c1` [Example 41, 2-(3-fluoro-5-methylphenyl)-N-[(2S)-1-hydroxypropan-2-yl]-6-[4-(trifluoromethoxy)phenyl]pyrimidine-4-carboxamide], the half-inhibitory concentration (IC50) stood at 29.5 nM in test [1] and 191 nM in test [2].

`C[C@@H](CO)NC(=O)c1cc(-c2ccc(OC(F)(F)F)cc2)nc(-c2ccc(C(F)F)cc2)n1` [Example 42, 2-[4-(difluoromethyl)phenyl]-N-[(2S)-1-hydroxypropan-2-yl]-6-[4-(trifluoromethoxy)phenyl]pyrimidine-4-carboxamide]: the IC50 in test [1] and in test [2] was 1100 nM in each case.

For the compound `CC(C)(O)CNC(=O)c1cc(-c2ccc(Cl)cc2)nc(-c2ccc(F)cc2)n1` [Example 45, 6-(4-chlorophenyl)-2-(4-fluorophenyl)-N-(2-hydroxy-2-methylpropyl)pyrimidine-4-carboxamide], the IC50 in test [1] turned out to be 24.4 nM; in test [2], 161 nM.

As for `CC(C)(O)CNC(=O)c1cc(-c2ccc(Cl)cc2)nc(-c2cc(Cl)cc(Cl)c2)n1` [Example 51, 6-(4-chlorophenyl)-2-(3,5-dichlorophenyl)-N-(2-hydroxy-2-methylpropyl)pyrimidine-4-carboxamide], the IC50 in test [1] turned out to be 101 nM; in test [2], 3090 nM.

As for `CC(C)(O)CNC(=O)c1cc(-c2ccc(Cl)cc2)nc(-c2ccc(C(F)F)cc2)n1` [Example 61, 6-(4-chlorophenyl)-2-[4-(difluoromethyl)phenyl]-N-(2-hydroxy-2-methylpropyl)pyrimidine-4-carboxamide], the figures for the IC50 in test [1] and in test [2] were more than 20000 nM and 7120 nM, respectively.

Take `COc1ccc(-c2nc(C(=O)N[C@@H](C)CO)cc(-c3ccc(Cl)cc3)n2)cc1` [Example 63, 6-(4-chlorophenyl)-N-[(2S)-1-hydroxypropan-2-yl]-2-(4-methoxyphenyl)pyrimidine-4-carboxamide]: the IC50 in test [1] stood at 392 nM; in test [2] it was 5150 nM.

With `Cc1cccc(-c2nc(C(=O)N[C@@H](C)CO)cc(-c3ccc(Cl)cc3)n2)c1` [Example 64, 6-(4-chlorophenyl)-N-[(2S)-1-hydroxypropan-2-yl]-2-(3-methylphenyl)pyrimidine-4-carboxamide], the IC50 was 7.2 nM in test [1] and 52.6 nM in test [2].

`Cc1cc(-c2nc(C(=O)N[C@@H](C)CO)cc(-c3ccc(Cl)cc3)n2)ccc1F` [Example 65, 6-(4-chlorophenyl)-2-(4-fluoro-3-methylphenyl)-N-[(2S)-1-hydroxypropan-2-yl]pyrimidine-4-carboxamide]: the IC50 is 48.5 nM in test [1] and 134 nM in test [2].

On to `C[C@@H](CO)NC(=O)c1cc(-c2ccc(Cl)cc2)nc(-c2ccc(F)c(Cl)c2)n1` [Example 66, 2-(3-chloro-4-fluorophenyl)-6-(4-chlorophenyl)-N-[(2S)-1-hydroxypropan-2-yl]pyrimidine-4-carboxamide], for which the IC50 in test [1] was 23.5 nM; in test [2], 148 nM.

On to `C[C@@H](CO)NC(=O)c1cc(-c2ccc(Cl)cc2)nc(-c2cccc(C#N)c2)n1` [Example 70, 6-(4-chlorophenyl)-2-(3-cyanophenyl)-N-[(2S)-1-hydroxypropan-2-yl]pyrimidine-4-carboxamide], for which the IC50 was 19.3 nM in test [1] and 215 nM in test [2].

Turning to `COc1cc(F)cc(-c2nc(C(=O)N[C@@H](C)CO)cc(-c3ccc(Cl)cc3)n2)c1` [Example 76, 6-(4-chlorophenyl)-2-(3-fluoro-5-methoxyphenyl)-N-[(2S)-1-hydroxypropan-2-yl]pyrimidine-4-carboxamide], the results for the IC50 in test [1] and in test [2] were 36.8 nM and 81.5 nM, respectively.

`CC(NC(=O)c1cc(-c2ccc(OC(F)(F)F)cc2)nc(-c2cccc(F)c2)n1)C(O)CO` (centres unmarked) [Example 79, N-(3,4-dihydroxybutan-2-yl)-2-(3-fluorophenyl)-6-[4-(trifluoromethoxy)phenyl]pyrimidine-4-carboxamide]: the IC50 in test [1] is 5.3 nM; in test [2], 2.37 nM.

Regarding `O=C(NC1CCCC(F)(F)C1O)c1cc(-c2ccc(OC(F)(F)F)cc2)nc(-c2cccc(F)c2)n1` (centres unmarked) [Example 80, N-(3,3-difluoro-2-hydroxycyclohexyl)-2-(3-fluorophenyl)-6-[4-(trifluoromethoxy)phenyl]pyrimidine-4-carboxamide], the IC50 in test [1] was determined as 6.43 nM; in test [2], 6.91 nM.

For the origin of these results see patent publication US11524944B2, “2-phenylpyrimidine-4-carboxamides as AHR inhibitors” (Bayer Aktiengesellschaft, priority 2017, dated 2022).
